# Measurements taken from US20230192722A1, “SALTS AND SOLID FORMS OF AN FGFR INHIBITOR AND PROCESSES OF PREPARING THEREOF” (Incyte Corporation, priority 2021, published 2023).
# Key:
# Type in all cases: physicochemical
# [1] = Solubility measurement of Compound 1 Phosphate, saturated in different solvent systems, measured by HPLC; conditions: DCM, 50° C. column, measured at 40° C.
# [2] = Phase equilibration of form mixtures, relative stability of Compound 1 Phosphate forms (XRPD); conditions: mixture of Forms I, II
# Procedure: The relative stability of the three forms (Forms I, II, and III) as well as amorphous form of Compound 1 Phosphate studied and compared by phase equilibration of mixture experiments in EtOH and in a mixture solvent of EtOH/H2O (9/1). As summarized in Table 16, Compound 1 Phosphate (Form I) was mixed and slurred with other forms in EtOH and in a mixed solvent of EtOH/H2O (9/1) at 50° C. for 6 h respectively.
# [3] = Solubility measurement of Compound 1 Phosphate, saturated in different solvent systems, measured by HPLC
# Procedure: The Compound 1 Phosphate sample was saturated in different solvent systems (Table 4) at 25° C. and 50° C., respectively. Each solubility was measured by HPLC.
compound,measurement,setting,value
"COc1cc2[nH]nc(-c3ccc(N4CCN5C[C@H](O)C[C@H]5C4)nc3)c2nc1-c1cccc(C)c1C.O=P(O)(O)O [Compound 1 Phosphate, (7R,8aS)-2-(5-(5-(2,3-dimethylphenyl)-6-methoxy-1H-pyrazolo[4,3-b]pyridin-3-yl)pyridin-2-yl)octahydropyrrolo[1,2-a]pyrazin-7-ol phosphate]",Solubility,[1],0.05 (40° C.) mg/mL
same,Product Solid Form,[2]; III and Amorphous slurried in EtOH at 50° C. for 6 h,transformed to Form I
same,Product Solid Form,[2]; III and Amorphous slurried in EtOH/H2O (9/1) at 50° C. for 6 h,transformed to Form I
same,Solubility,"[3]; 1,4-dioxane, 25° C.",150 µg/mL
same,Solubility,"[3]; 1,4-dioxane, 50° C.",230 µg/mL
same,Solubility,"[3]; 2-Butanone, 25° C.",100 µg/mL
same,Solubility,"[3]; 2-Butanone, 50° C.",130 µg/mL
same,Solubility,"[3]; Acetone, 25° C.",70 µg/mL
same,Solubility,"[3]; Acetone, 50° C.",100 µg/mL
same,Solubility,"[3]; CH3CN, 25° C.",<10 µg/mL
same,Solubility,"[3]; CH3CN, 50° C.",10 µg/mL
same,Solubility,"[3]; CHCl3, 25° C.",60 µg/mL
same,Solubility,"[3]; CHCl3, 50° C.",130 µg/mL
same,Solubility,"[3]; DCM, 25° C.",30 µg/mL
same,Solubility,"[3]; DMF, 25° C.",14410 µg/mL
same,Solubility,"[3]; DMF, 50° C.",19060 µg/mL
same,Solubility,"[3]; DMSO, 25° C.",33740 µg/mL
same,Solubility,"[3]; DMSO, 50° C.",44990 µg/mL
same,Solubility,"[3]; EtOAc, 25° C.",50 µg/mL
same,Solubility,"[3]; EtOAc, 50° C.",60 µg/mL
same,Solubility,"[3]; EtOH, 25° C.",530 µg/mL
same,Solubility,"[3]; EtOH, 50° C.",680 µg/mL
same,Solubility,"[3]; Ethyl formate, 25° C.",120 µg/mL
same,Solubility,"[3]; Ethyl formate, 50° C.",140 µg/mL
same,Solubility,"[3]; H2O, 25° C.",260 µg/mL
same,Solubility,"[3]; H2O, 50° C.",1100 µg/mL
same,Solubility,"[3]; Heptane, 25° C.",<10 µg/mL
same,Solubility,"[3]; Heptane, 50° C.",<10 µg/mL
same,Solubility,"[3]; IPA, 25° C.",230 µg/mL
same,Solubility,"[3]; IPA, 50° C.",280 µg/mL
same,Solubility,"[3]; IPAc, 25° C.",20 µg/mL
same,Solubility,"[3]; IPAc, 50° C.",30 µg/mL
same,Solubility,"[3]; MIBK, 25° C.",160 µg/mL
same,Solubility,"[3]; MIBK, 50° C.",160 µg/mL
same,Solubility,"[3]; MTBE, 25° C.",60 µg/mL
same,Solubility,"[3]; MTBE, 50° C.",70 µg/mL
same,Solubility,"[3]; MeOEtOH, 25° C.",4140 µg/mL
same,Solubility,"[3]; MeOEtOH, 50° C.",5570 µg/mL
same,Solubility,"[3]; MeOH, 25° C.",2260 µg/mL
same,Solubility,"[3]; MeOH, 50° C.",2440 µg/mL
same,Solubility,"[3]; THF, 25° C.",60 µg/mL
same,Solubility,"[3]; THF, 50° C.",70 µg/mL
same,Solubility,"[3]; Toluene, 25° C.",<10 µg/mL
same,Solubility,"[3]; Toluene, 50° C.",20 µg/mL
same,Solubility (almost insoluble),"[3]; in CH3CN, CHCl3, DCM, 1,4-dioxane, MIBK, toluene, THF, acetone, n-BuOH, MTBE, EtOH, EtOAc, ethyl formate, heptane, iso-butyl acetate, IPAc, n-PrOH, IPA, MEK at 25° C. and 50° C., and in H2O at 25° C.",< 1000 µg/mL
same,Solubility (relatively good solubility),"[3]; in DMF and DMSO, at both 25° C. and 50° C.",> 10000 µg/mL
same,Solubility (slightly soluble),"[3]; in MeOH and MeOEtOH at 25° C. and 50° C., and in H2O at 50° C.",1000 to 10000 µg/mL
same,Solubility,"[3]; iso-Butyl acetate, 25° C.",110 µg/mL
same,Solubility,"[3]; iso-Butyl acetate, 50° C.",150 µg/mL
same,Solubility,"[3]; n-BuOH, 25° C.",360 µg/mL
same,Solubility,"[3]; n-BuOH, 50° C.",470 µg/mL
same,Solubility,"[3]; n-PrOH, 25° C.",400 µg/mL
same,Solubility,"[3]; n-PrOH, 50° C.",400 µg/mL
